Measurements published in ChEMBL document CHEMBL5244273, “Tuberculosis: An Overview of the Immunogenic Response, Disease Progression, and Medicinal Chemistry Efforts in the Last Decade toward the Development of Potential Drugs for Extensively Drug-Resistant Tuberculosis Strains” (J Med Chem, 2021).
≈ marks a conversion by molar mass, not a printed value.

Key:
[1] = system: Mycobacterium tuberculosis; assay: Antitubercular activity against Mycobacterium tuberculosis H37Rv assessed as inhibition of bacterial growth by alamar blue assay; assay type: functional
[2] = system: Mycobacterium tuberculosis; assay: Antimycobacterial activity against Mycobacterium tuberculosis H37Rv incubated for 5 weeks; assay type: functional; details: 840 h
[3] = system: Mycobacterium tuberculosis; assay: Antimycobacterial activity against Mycobacterium tuberculosis H37Rv incubated for 4 weeks; assay type: functional; details: 672 h
[4] = system: Mycobacterium tuberculosis; assay: Antimycobacterial activity against Mycobacterium tuberculosis H37Rv incubated for 3 weeks; assay type: functional; details: 504 h
[5] = system: Mycobacterium tuberculosis; assay: Antimycobacterial activity against Mycobacterium tuberculosis H37Rv incubated for 2 weeks; assay type: functional; details: 336 h
[6] = system: Mycobacterium tuberculosis; assay: Antimycobacterial activity against Mycobacterium tuberculosis H37Rv infected in human THP-1 cells assessed as inhibition of bacterial growth; assay type: functional, organism-based
[7] = system: Mycobacterium tuberculosis; assay: Potentiation of ethionamide induced antibacterial activity against Mycobacterium tuberculosis H37Rv expressing GFP incubated for 5 days by fluorescence based analysis; assay type: functional, organism-based; details: 120 h
[8] = system: Mycobacterium tuberculosis; assay: Antimycobacterial activity against Mycobacterium tuberculosis H37Rv assessed as inhibition of bacterial growth incubated for 5 days by alamar blue assay; assay type: functional; details: 120 h, time 5 day

Structure (SMILES) | MIC [1] [µg/mL] | IC50 [6] [nM] | EC50 [7] [nM] | other results
O=C(NNC(=O)c1ccc([N+](=O)[O-])cc1)c1ccncc1 | 25 (≈ 87.3 µM) | – | – | –
Cc1ccccc1C(=O)NNC(=O)c1ccncc1 | 25 (≈ 97.9 µM) | – | – | –
O=C(NNS(=O)(=O)c1ccccc1)c1ccncc1 | 50 (≈ 180 µM) | – | – | –
Cc1ccc(S(=O)(=O)NNC(=O)c2ccncc2)cc1 | 25 (≈ 85.8 µM) | – | – | –
O=C(Cc1ccccc1F)NNC(=O)c1ccncc1 | 6.25 (≈ 22.9 µM) | – | – | –
O=C(NNC(=O)c1ccc(Cl)c(Cl)c1)c1ccncc1 | 12.5 (≈ 40.3 µM) | – | – | –
O=C(NNC(=O)c1ccc(Cl)cc1)c1ccncc1 | 25 (≈ 90.7 µM) | – | – | –
O=C(NNC(=O)c1ccncc1)c1ccncc1 | 12.5 (≈ 51.6 µM) | – | – | –
CCCCCCCCCCCCCCCCCC(=O)NNC(=O)c1ccncc1 | 50 (≈ 124 µM) | – | – | –
COc1ccc(/C=C/C(=O)NNC(=O)c2ccncc2)cc1 | 12.5 (≈ 42 µM) | – | – | –
O=C(/C=C/c1ccccc1)NNC(=O)c1ccncc1 | 50 (≈ 187 µM) | – | – | –
CC(C)(C)n1cc(C(=O)O)c(=O)c2cc(F)c(-c3ccc(F)cc3F)cc21 | – | – | – | MIC [2]: 8 µg/mL (≈ 21.3 µM); MIC [3]: 8 µg/mL (≈ 21.3 µM); MIC [4]: 8 µg/mL (≈ 21.3 µM); MIC [5]: 4 µg/mL (≈ 10.7 µM)
CC(C)(C)n1cc(C(=O)O)c(=O)c2cc(F)c(Sc3ccccc3)cc21 | – | – | – | MIC [2]: 16 µg/mL (≈ 43.1 µM); MIC [3]: 16 µg/mL (≈ 43.1 µM); MIC [4]: 16 µg/mL (≈ 43.1 µM); MIC [5]: 8 µg/mL (≈ 21.5 µM)
O=C(CCC(F)(F)F)N1CCC(F)(c2ccnc(Cl)c2)CC1 | – | 10 | < 150 | –
COc1ccc(NC(=O)c2c(Nc3cccc(C)c3C)nn3c(O)cc(C)nc23)cc1 | – | – | – | MIC [8]: 50 µg/mL (≈ 120 µM)
CCOc1ccc(NC(=O)c2c(Nc3ccccc3)nn3c(O)cc(C)nc23)cc1 | – | – | – | MIC [8]: 50 µg/mL (≈ 124 µM)
Cc1cc(O)n2nc(Nc3ccc(F)cc3)c(C(=O)Nc3cccc(Cl)c3)c2n1 | – | – | – | MIC [8]: 12.5 µg/mL (≈ 30.4 µM)
Cc1ccc(NC(=O)c2c(Nc3ccccc3)nn3c(O)cc(C)nc23)cc1 | – | – | – | MIC [8]: 50 µg/mL (≈ 134 µM)
Cc1cc(O)n2nc(Nc3cccc(C)c3C)c(C(=O)Nc3cccc(Cl)c3)c2n1 | – | – | – | MIC [8]: 50 µg/mL (≈ 119 µM)
Cc1ccc(Nc2nn3c(O)cc(C)nc3c2C(=O)Nc2ccc(F)cc2)c(C)c1 | – | – | – | MIC [8]: 50 µg/mL (≈ 123 µM)
O=C(CCC(F)(F)F)N1CC(C2CCCCC2)C1 | – | 10 | < 10 | –
O=C(CCC(F)(F)F)N1CCC(F)(c2ccnc(F)c2)CC1 | – | 10 | < 150 | –
CCN1CCN(c2nn3c(O)cc(C)nc3c2C(=O)Nc2cccc(Cl)c2Cl)CC1 | – | – | – | MIC [8]: 50 µg/mL (≈ 111 µM)
O=C(NNC(=O)c1cc(O)ccc1O)c1ccncc1 | 50 (≈ 183 µM) | – | – | –
O=C(CCC(F)(F)F)N1CCC(F)(c2cncc(Cl)c2)CC1 | – | 10 | < 150 | –

Structure (SMILES) | MIC [1] [µg/mL] | IC50 [6] [nM] | EC50 [7] [nM] | other results
C=CC(=O)NNC(=O)c1ccncc1 | 50 (≈ 262 µM) | – | – | –
O=C(CCC(F)(F)F)N1CCC2(CC1)CC(Br)=NO2 | – | 50 | < 38 | –
O=C(CCC(F)(F)F)N1CC(c2cccc(Cl)c2)C1 | – | 10 | < 10 | –
O=C(CCC(F)(F)F)N1CCC(F)(c2cncc(C(F)(F)F)c2)CC1 | – | 10 | < 150 | –
Cc1cccc(C(=O)NNC(=O)c2ccncc2)c1 | 12.5 (≈ 49 µM) | – | – | –
O=C(NNC(=O)c1ccco1)c1ccncc1 | 12.5 (≈ 54.1 µM) | – | – | –
O=C(/C=C/c1ccc(Cl)cc1)NNC(=O)c1ccncc1 | 12.5 (≈ 41.4 µM) | – | – | –
O=C(CCC(F)(F)F)N1CCC(F)(c2cc(C(F)(F)F)ccn2)CC1 | – | 10 | < 150 | –
COC1=NOC2(CCN(C(=O)CCCl)CC2)C1 | – | 50 | < 38 | –
COc1ccc(C(=O)NNC(=O)c2ccncc2)cc1OC | 50 (≈ 166 µM) | – | – | –
CC(C)(C)n1cc(C(=O)O)c(=O)c2cc(F)c(-c3ccccc3)cc21 | – | – | – | MIC [2]: 2 µg/mL (≈ 5.89 µM); MIC [3]: 2 µg/mL (≈ 5.89 µM); MIC [4]: 2 µg/mL (≈ 5.89 µM); MIC [5]: 1 µg/mL (≈ 2.95 µM)
O=C(CCCl)N1CCC2(CC1)CC(C(F)(F)F)=NO2 | – | 50 | < 38 | –
CCC1=NOC2(CCN(C(=O)CCC(F)(F)F)CC2)C1 | – | 50 | < 38 | –
O=C(CCC(F)(F)F)N1CCC(c2ccnc(Cl)c2)CC1 | – | 10 | < 150 | –
CCOC1=NOC2(CCN(C(=O)CCC(F)(F)F)CC2)C1 | – | 50 | < 38 | –
CC(Br)C(=O)NNC(=O)c1ccncc1 (stereo not given) | 50 (≈ 184 µM) | – | – | –
O=C(CCC(F)(F)F)N1CCC(c2cnc(F)c(F)c2)CC1 | – | 10 | < 150 | –
CCCCCCOC1=NOC2(CCN(C(=O)CCC(F)(F)F)CC2)C1 | – | 50 | < 38 | –
O=C(CCC(F)(F)F)N1CCC(c2ncc(F)cc2F)CC1 | – | 10 | < 150 | –
COc1ccc(Nc2nn3c(O)cc(C)nc3c2C(=O)Nc2ccc(F)c(Cl)c2)cc1 | – | – | – | MIC [8]: 25 µg/mL (≈ 56.6 µM)
O=C(Cc1cccc(Br)c1)NNC(=O)c1ccncc1 | 25 (≈ 74.8 µM) | – | – | –
O=C(CCCC(F)(F)F)N1CCC(c2cncc(Cl)c2)CC1 | – | 10 | < 150 | –
Nc1ccc(O)c(C(=O)NNC(=O)c2ccncc2)c1 | 50 (≈ 184 µM) | – | – | –
O=C(NNC(=O)C1CCNC(Br)C1)c1ccncc1 (stereo not given) | 25 (≈ 76.4 µM) | – | – | –
